Organism: Rattus norvegicus
Assay: DrugMatrix - Regimen: Daily Repeat
Type: toxicity, organism-based, Sprague-Dawley
Parameters: regimen Daily Repeat, gender Male, age 6-8 weeks
Conditions: in vivo, po, route oral GAVAGE, vehicle 100 % WATER; for ABSOLUTE BASOPHIL / ABSOLUTE EOSINOPHIL / ABSOLUTE LYMPHOCYTE / ABSOLUTE MONOCYTE / ABSOLUTE SEGMENTED NEUTROPHIL / BASOPHIL / EOSINOPHIL / ERYTHROCYTE COUNT / HEMATOCRIT / HEMOGLOBIN / LEUKOCYTE COUNT / LYMPHOCYTE / MEAN CORPUSCULAR HEMOGLOBIN / MEAN CORPUSCULAR HEMOGLOBIN CONCENTRATION / MEAN CORPUSCULAR VOLUME / MONOCYTE / NEUTROPHIL / NUCLEATED RED BLOOD CELLS / PLATELET COUNT: tissue Blood; for ALANINE AMINOTRANSFERASE / ALBUMIN / ALKALINE PHOSPHATASE / ASPARTATE AMINOTRANSFERASE / BLOOD UREA NITROGEN / CARBON DIOXIDE / CHLORIDE / CHOLESTEROL / CREATINE PHOSPHOKINASE / CREATININE / GLUCOSE / LACTATE DEHYDROGENASE / LIPASE / PHOSPHORUS / POTASSIUM / SODIUM / TOTAL BILIRUBIN / TOTAL PROTEIN / URIC ACID: tissue Plasma
[1] = 58 mg/kg, 120 h, dose level Low, time 5 day
[2] = 220 mg/kg, 72 h, dose level High, time 3 day
[3] = 220 mg/kg, 120 h, dose level High, time 5 day

NC12CC3CC(CC(C3)C1)C2 [AMANTADINE]
ABSOLUTE BASOPHIL [1]: 0 CELLS/uL
ABSOLUTE EOSINOPHIL [1]: 0 CELLS/uL
ABSOLUTE LYMPHOCYTE [1]: 10747.67 CELLS/uL
ABSOLUTE MONOCYTE [1]: 83.67 CELLS/uL
ABSOLUTE SEGMENTED NEUTROPHIL [1]: 1002 CELLS/uL
BASOPHIL [1]: 0%
EOSINOPHIL [1]: 0%
ERYTHROCYTE COUNT [1]: 6.06 x10E6/uL
HEMATOCRIT [1]: 37.8%
HEMOGLOBIN [1]: 14.9 G/DL
LEUKOCYTE COUNT [1]: 11.83 x10E3/uL
LYMPHOCYTE [1]: 89%
MEAN CORPUSCULAR HEMOGLOBIN [1]: 24.63 pg
MEAN CORPUSCULAR HEMOGLOBIN CONCENTRATION [1]: 39.43 G/DL
MEAN CORPUSCULAR VOLUME [1]: 62.5 fL
MONOCYTE [1]: 1%
NEUTROPHIL [1]: 10%
NUCLEATED RED BLOOD CELLS [1]: 0 /100WBC
PLATELET COUNT [1]: 1200.33 x10E3/uL
ALANINE AMINOTRANSFERASE [1]: 44 u/L
ALBUMIN [1]: 4.27 G/DL
ALKALINE PHOSPHATASE [1]: 432.67 u/L
ASPARTATE AMINOTRANSFERASE [1]: 73.33 u/L
BLOOD UREA NITROGEN [1]: 16 mg/dL
CARBON DIOXIDE [1]: 31 mmol/L
CHLORIDE [1]: 100.33 MEQ/L
CHOLESTEROL [1]: 73.33 mg/dL
CREATINE PHOSPHOKINASE [1]: 431.33 u/L
CREATININE [1]: 0.18 mg/dL
GLUCOSE [1]: 147 mg/dL
LACTATE DEHYDROGENASE [1]: 336 u/L
LIPASE [1]: 11.33 u/L
PHOSPHORUS [1]: 12.13 mg/dL
POTASSIUM [1]: 6.25 MEQ/L
SODIUM [1]: 142.77 MEQ/L
TOTAL BILIRUBIN [1]: 0.23 mg/dL
TOTAL PROTEIN [1]: 6.27 G/DL
URIC ACID [1]: 1.43 mg/dL
ABSOLUTE BASOPHIL [2]: 0 CELLS/uL
ABSOLUTE EOSINOPHIL [2]: 0 CELLS/uL
ABSOLUTE LYMPHOCYTE [2]: 17634 CELLS/uL
ABSOLUTE MONOCYTE [2]: 192.33 CELLS/uL
ABSOLUTE SEGMENTED NEUTROPHIL [2]: 940.33 CELLS/uL
BASOPHIL [2]: 0%
EOSINOPHIL [2]: 0%
ERYTHROCYTE COUNT [2]: 5.62 x10E6/uL
HEMATOCRIT [2]: 36.3%
HEMOGLOBIN [2]: 14.43 G/DL
LEUKOCYTE COUNT [2]: 18.77 x10E3/uL
LYMPHOCYTE [2]: 94%
MEAN CORPUSCULAR HEMOGLOBIN [2]: 25.7 pg
MEAN CORPUSCULAR HEMOGLOBIN CONCENTRATION [2]: 39.77 G/DL
MEAN CORPUSCULAR VOLUME [2]: 64.63 fL
MONOCYTE [2]: 1%
NEUTROPHIL [2]: 5%
NUCLEATED RED BLOOD CELLS [2]: 0 /100WBC
PLATELET COUNT [2]: 1304.33 x10E3/uL
ALANINE AMINOTRANSFERASE [2]: 42.33 u/L
ALBUMIN [2]: 4.23 G/DL
ALKALINE PHOSPHATASE [2]: 440 u/L
ASPARTATE AMINOTRANSFERASE [2]: 69 u/L
BLOOD UREA NITROGEN [2]: 13.67 mg/dL
CARBON DIOXIDE [2]: 32 mmol/L
CHLORIDE [2]: 101 MEQ/L
CHOLESTEROL [2]: 61 mg/dL
CREATINE PHOSPHOKINASE [2]: 227.67 u/L
CREATININE [2]: 0.16 mg/dL
GLUCOSE [2]: 149 mg/dL
LACTATE DEHYDROGENASE [2]: 138.67 u/L
LIPASE [2]: 10.67 u/L
PHOSPHORUS [2]: 11.67 mg/dL
POTASSIUM [2]: 6.52 MEQ/L
SODIUM [2]: 143.17 MEQ/L
TOTAL BILIRUBIN [2]: 0.17 mg/dL
TOTAL PROTEIN [2]: 5.93 G/DL
URIC ACID [2]: 1.7 mg/dL
ABSOLUTE BASOPHIL [3]: 0 CELLS/uL
ABSOLUTE EOSINOPHIL [3]: 49 CELLS/uL
ABSOLUTE LYMPHOCYTE [3]: 15618.33 CELLS/uL
ABSOLUTE MONOCYTE [3]: 94.33 CELLS/uL
ABSOLUTE SEGMENTED NEUTROPHIL [3]: 971.67 CELLS/uL
BASOPHIL [3]: 0%
EOSINOPHIL [3]: 0.33%
ERYTHROCYTE COUNT [3]: 5.95 x10E6/uL
HEMATOCRIT [3]: 37.33%
HEMOGLOBIN [3]: 14.67 G/DL
LEUKOCYTE COUNT [3]: 16.73 x10E3/uL
LYMPHOCYTE [3]: 93.33%
MEAN CORPUSCULAR HEMOGLOBIN [3]: 24.73 pg
MEAN CORPUSCULAR HEMOGLOBIN CONCENTRATION [3]: 39.3 G/DL
MEAN CORPUSCULAR VOLUME [3]: 62.9 fL
MONOCYTE [3]: 0.67%
NEUTROPHIL [3]: 5.67%
NUCLEATED RED BLOOD CELLS [3]: 0 /100WBC
PLATELET COUNT [3]: 1216.33 x10E3/uL
ALANINE AMINOTRANSFERASE [3]: 55.33 u/L
ALBUMIN [3]: 4.13 G/DL
ALKALINE PHOSPHATASE [3]: 501 u/L
ASPARTATE AMINOTRANSFERASE [3]: 86.67 u/L
BLOOD UREA NITROGEN [3]: 14 mg/dL
CARBON DIOXIDE [3]: 31 mmol/L
CHLORIDE [3]: 100.67 MEQ/L
CHOLESTEROL [3]: 67.33 mg/dL
CREATINE PHOSPHOKINASE [3]: 446.67 u/L
CREATININE [3]: 0.17 mg/dL
GLUCOSE [3]: 165.67 mg/dL
LACTATE DEHYDROGENASE [3]: 167.33 u/L
LIPASE [3]: 11 u/L
PHOSPHORUS [3]: 11.4 mg/dL
POTASSIUM [3]: 6.52 MEQ/L
SODIUM [3]: 143.23 MEQ/L
TOTAL BILIRUBIN [3]: 0.23 mg/dL
TOTAL PROTEIN [3]: 6.3 G/DL
URIC ACID [3]: 1.77 mg/dL

Reference: ChEMBL document CHEMBL3885881, “DrugMatrix”
